{
  "source": "patent US9913833B2",
  "about": "“Methods of treating developmental disorders using pipradrol” (Ovid Therapeutics Inc., priority 2015, dated 2018)",
  "origin": "cited, not measured here",
  "tested_on": "depression",
  "details": "published study on 111 individuals with depression",
  "data": [
    {"smiles": "OC(c1ccccc1)(c1ccccc1)C1CCCCN1", "note": "(stereo not shown) [pipradrol]", "values": [
      {"measurement": "efficacy in depression compared with placebo", "value": "not superior to placebo"}
    ]}
  ]
}
